Results published in patent publication US20070213403A1, “TAMOXIFEN RESPONSE IN PRE-AND POST[…] CANCER PATIENTS” (priority 2004, published 2007).

Columns and labels:
[1] = system: premenopausal patients with stage II invasive breast cancer; experiment: Randomised trial of two years of adjuvant tamoxifen vs control in premenopausal patients; assay type: in vivo, human
Source text: Premenopausal patients or patients under 50 years with stage II (pT2 N0 M0, pT1 N1 M0 and pT2, N1 M0) invasive breast cancer were enrolled in a clinical trial between 1986 -1991 and randomized to control (n=288) or two years of tamoxifen (n=276). All patients were radically operated by modified radical mastectomy or breast conserving surgery with axillary lymph node dissection (level one and two). After breast conserving surgery, radiotherapy (50 Gy) was given to the breast and in patients with axillary lymph node metastases locoregional radiotherapy was delivered. Patients were included irrespective of hormone receptor status. Randomization was performed by the Regional Oncologic Centre and oral informed consent registered for all patients. The study was approved by the ethical committee at Lund and Linkoping Universities.
The patients were followed until 5 years with annual mammogram and physical examination and then within the national program by screening mammogram every 18th month.The median duration of follow-up for patients without breast cancer event was 13.9 years (95% Cl: 13.6-14.3). The median follow-up time was the same in the two treatment arms. • 2. Postmenopausal Patients
(§1) 3-4 um sections of the paraffin embedded tissue arrays were dried, deparaffinized, rehydrated and microwave treated for 5+5 min in a citrate buffer (pH 6.0) before being processed in an automatic immunohistochemistry staining machine according to standard procedures (TechMate500, Dako, Denmark) using a polyclonal VEGF (A-20) antibody diluted 1:400 recognizing VEGF 165, 189 and 121 (Santa Cruz, Calif., USA) and a monoclonal VEGFR2 antibody recognizing VEGFR2/KDR diluted 1:1000 (Santa Cruz, Calif., USA). Normal human kidneys were used as positive controls for VEGF-A and for VEGFR2, human aortic endothelium served as positive controls. VEGF-A was previously validated using an ELISA-based method (LR). The cytoplasmatic staining intensity was evaluated semi-quantitatively using a classification from 0-3, representing lack of staining (0), low staining intensity (1), intermediate staining intensity (2) and high staining intensity (3). Only invasive tumor cells were evaluated. In survival analyses, high staining intensity (grade 3) was compared with the other grades (0, 1, 2) for both VEGF-A and VEGFR2 in premenopausal patients. In postmenopausal patients lack of staining was compared with staining of any intensity.
ER and PR were determined by immunohistochemistry in a tissue microarray. For this purpose, the Ventana Benchmark system (Ventana Medical Systems Inc., AZ, USA) with prediluted antibodies (Anti-ER Clone 6F11 and Anti-PgR Clone 16) was used. In line with the clinically established cut-off used for hormone receptor assessment, tumors with more than 10% positively staining nuclei were considered positive. In addition, the fractions of positive nuclei were quantified. […]
(§2) For survival analyses all calculations were done according to the intention to treat rule. Recurrence-free survival (RFS) considered distant, local and regional metastasis as primary event as well as breast cancer death, whereas contralateral breast cancer was not included. The Kaplan-Meier method was used to estimate recurrence-free and breast cancer survival and the log-rank test to compare survival in different strata. Cox proportional hazards model was used for estimation of univariate hazard ratios (HRs) and multivariate analysis.

[2] = system: postmenopausal patients with stage II invasive breast cancer; experiment: Randomised trial of two years of tamoxifen (40 mg/day) vs control in postmenopausal patients; assay type: in vivo, human
Source text: The patients included were enrolled in a multi-center clinical trial at Umea University Hospital, Sweden, during 1980-1987 (Trial II) included in the Oxford meta-analysis. The inclusion criteria were postmenopausal patients (>55 years) with stage II (pT1, pN1, pM0, pT2, pN0, pM0, pT2, […], pM0) invasive breast cancer. For patients older than 70 years, stage II and stage III breast cancer patients were included. Patients were operated with modified radical mastecomy. The hormone receptor level was not determined at time of randomization. Patients were randomized to control or tamoxifen treatment (40 mg/day) for two years by the Regional Oncologic Center and oral informed consent was registered on admission to the Oncological Clinic. The study was approved by the Ethical Committee at the Umea university 1980 as well as 2002 (modification regarding molecular markers used in tissue micro array). The median age was 66.5 years (55-75 years) at inclusion. The median follow-up time was 18 years (range 15-22 years) for surviving patients.
as §1
ER and PR were determined by immunohistochemistry in a tissue microarray. For this purpose, the Ventana Benchmark system (Ventana Medical Systems Inc., AZ, USA) with prediluted antibodies (Anti-ER Clone 6F11 and Anti-PgR Clone 16) was used. In line with the clinically established cut-off used for hormone receptor assessment, tumors with more than 10% positively staining nuclei were considered positive. In addition, the fractions of positive nuclei were quantified.
as §2

[3] = system: hormone receptor positive breast cancer; conditions: adjuvant tamoxifen for five years; cited from earlier work
[4] = Cox model with VEGFR2 status and interaction-variable, ER positive patients
[5] = Cox model, ER positive patients
[6] = Cox multivariate model with VEGF-A status and interaction-variable, ER positive patients
[7] = Cox multivariate model, ER positive patients
[8] = ER positive patients, univariate
[9] = ER positive, HER2 low tumors, univariate

CC/C(=C(\c1ccccc1)c1ccc(OCCN(C)C)cc1)c1ccccc1 [tamoxifen]
absolute risk reduction (recurrence) ([1]; 324 ER positive patients, two years of tamoxifen vs control): 15% | HR, OS, Randomization Tam v control [1, 4]: 0.6 | HR, RFS, Randomization Tam v control [1, 4]: 0.6 | HR, OS, interaction-variable tamoxifen treatment x VEGFR2 status [1, 5]: 5.2 | HR, RFS, interaction-variable tamoxifen treatment x VEGFR2 status [1, 5]: 2.2 | HR, OS, Randomization Tam v control [1, 6]: 1.1 | HR, RFS, Randomization Tam v control [1, 6]: 0.5 | HR, OS, interaction-variable tamoxifen treatment x VEGF-A status [1, 7]: 0.5 | HR, RFS, interaction-variable tamoxifen treatment x VEGF-A status [1, 7]: 1.5 | HR, OS (tamoxifen vs control) ([1]; ER negative disease): 0.9 | HR, RFS (tamoxifen vs control) ([1]; ER negative disease): 0.9 | recurrence rate ([1]; ER positive patients, tamoxifen treated group): 36% | HR, OS (tamoxifen vs control) [1, 8]: 0.8 | HR, RFS (tamoxifen vs control) [1, 8]: 0.6 | HR, OS (tamoxifen vs control) [1, 9]: 0.8 | HR, RFS (tamoxifen vs control) [1, 9]: 0.6 | HR, OS (tamoxifen vs control) ([1]; ER positive, HER 2 overexpressing tumor, univariate): 0.9 | HR, RFS (tamoxifen vs control) ([1]; ER positive, HER2 overexpression, univariate): 0.7 | HR, RFS (tamoxifen vs control) ([1]; ER positive, VEGF grade 3 tumors, univariate): 0.8 | HR, RFS (tamoxifen vs control) ([1]; ER positive, VEGF-A grade 0-2 tumors, univariate): 0.6 | HR, OS (tamoxifen vs control) ([1]; ER positive, VEGFA grade 0-2 tumors, univariate): 0.8 | HR, OS (tamoxifen vs control) ([1]; ER positive, VEGFA grade 3 tumors, univariate): 0.8 | HR, OS (tamoxifen vs control) ([1]; ER positive, VEGFR2 3): 3.4 | HR, RFS (tamoxifen vs control) ([1]; ER positive, VEGFR2 grade 0, 1 or 2 staining intensity): 0.6 | HR, OS (tamoxifen vs control) ([1]; ER positive, VEGFR2 grade 0-2): 0.7 | HR, RFS (tamoxifen vs control) ([1]; ER positive, intense expression of VEGFR2 (grade 3)): 1.4 | HR of interaction-variable VEGFR2 status x tamoxifen treatment, OS ([2]; Cox model, 10 years, ER positive >90% stained nuclei): 0.2 | HR, OS at 10 years (tamoxifen vs control) ([2]; ER positive >90% stained nuclei, VEGF-A negative tumors): 0.3 | HR, OS at 10 years (tamoxifen vs control) ([2]; ER positive >90% stained nuclei, VEGF-A positive tumors): 0.8 | HR, OS at 10 years (tamoxifen vs control) ([2]; ER positive >90% stained nuclei, VEGFR2 negative tumors): 0.2 | HR, OS at 10 years (tamoxifen vs control) ([2]; ER positive >90% stained nuclei, VEGFR2 positive tumors): 0.9 | effect on overall survival of tamoxifen treatment ([2]; all patients irrespective of hormone receptor content): non-significant | tamoxifen response (overall survival) ([2]; patients with >90% ER positive cells, 10 years): notable at 10-years, however not strictly significant | reduction of death [3]: 28% | reduction of recurrence [3]: 50%
